“And” between values parts separate entries of the source, which are not always exact repeats. Equal entries are not always repeated. Where two headings read alike, the source gives them in different places. Square brackets hold non-standard residues; d marks the D form. Peptide text beside a SMILES is read from it. * marks the point of attachment. X3 = O=C1CN2CCN3CC(=O)O[C]4(C3)CN(CC(=O)*)CCN3CC(=O)O[C](C2)(C3)[Lu]4[O]1; X4 = O=C1CN2CCN3CC(=O)O[C]4(C3)CN(CC(=O)*)CCN3CC(=O)O[C](C2)(C3)[Ga]4[O]1; DOTAGA = O=C(O)CN1CCN(CC(=O)O)CCN(C(CCC(=O)*)C(=O)O)CCN(CC(=O)O)CC1; X5 = O=C(O)CN1CCN(CC(=O)O)CCN([C@H](CCC(=O)*)C(=O)O)CCN(CC(=O)O)CC1; DOTA = O=C(O)CN1CCN(CC(=O)O)CCN(CC(=O)*)CCN(CC(=O)O)CC1; X2 = O=C(O)CN1CCCN(CC(=O)O)CCN(CC(=O)*)CCCN(CC(=O)O)CC1; Pyrrolidine(2S-CN,4,4-F2) = N#C[C@@H]1CC(F)(F)CN1*; boroPro = OB(O)[C@@H]1CCCN1*
What was measured:
Format in all cases: biochemical
[1] = biological target: recombinant human fibroblast activation protein (FAP) (Homo sapiens (Human), UniProt Q12884); experiment: In vitro assay fibroblast activation protein IC50 (Example 21)
Procedure: (§1) The purpose of this assay is to determine the IC50 of various inhibitors against recombinant human dipeptidyl peptidase IV (DPPIV), fibroblast activation protein (FAP) or prolyl oligopeptidase (PREP).
(§2) The assays are conducted in the following steps: • 1 Dissolve the compound in DMSO to a final concentration of 100 mM. From this, prepare a 1 mM stock at pH 7.5 in 50 mM Tris, 140 mM NaCl Buffer (FAP)/pH 7.5 in 25 mM Tris, 250 mM NaCl Buffer/[…]. • 2. Serial dilute (1:10) the 1 mM compound stocks prepared previously into the appropriate assay buffer (FAP: 50 mM Tris, 140 mM NaCl, pH 7.5/PREP: 25 mM Tris, 0.25 M NaCl, pH 7.5/DPPIV: 25 mM Tris, pH 8.0) to one row of a 96-well plate. • 3. […] Dilute the enzymes into their appropriate assay buffers. The final enzyme concentrations should be 0.1, 1.2, and 0.6 nM for DPPIV, FAP and PREP respectively. Add 180 μL to each well needed in columns 2-10. Column 1(A,B,C) should be prepared with 200 μl of appropriate assay buffer as control. Column 1(D,E,F,G,H) should be prepared with 20 μl of appropriate assay buffer and 180 ul enzyme as no inhibitor control. • 5. Add 20 μL of the compound of interest from the dilution plate prepared in step 2 to columns 2-10 of the assay plate where appropriate. Each sample should be tested in triplicate. Allow this to incubate for 10 minutes at room temperature, shaking the plate for the first two minutes. • 6. Add 10 μL of 20× substrate prepared in step 3 to each well and allow this to incubate for 15 minutes at room temperature, shaking the plate for the first two minutes. • 7. Read the fluorescence at λex: 380, λem: 460. (DPcore=[dAla|dSer|Gly]-[boroPro|Pro-nitrile], XXaa=alpha-amino acid)

[2] = biological target: recombinant human prolyl oligopeptidase (PREP) (Homo sapiens (Human), UniProt P48147); experiment: In vitro assay prolyl oligopeptidase IC50 (Example 21)
Procedure: as §1, §2

[3] = biological target: recombinant human dipeptidyl peptidase IV (DPPIV) (Homo sapiens (Human), UniProt P27487); experiment: In vitro assay dipeptidyl peptidase IV IC50 (Example 21)
Procedure: as §1, §2

recombinant human prolyl oligopeptidase (PREP), sequence (P48147 whole entry): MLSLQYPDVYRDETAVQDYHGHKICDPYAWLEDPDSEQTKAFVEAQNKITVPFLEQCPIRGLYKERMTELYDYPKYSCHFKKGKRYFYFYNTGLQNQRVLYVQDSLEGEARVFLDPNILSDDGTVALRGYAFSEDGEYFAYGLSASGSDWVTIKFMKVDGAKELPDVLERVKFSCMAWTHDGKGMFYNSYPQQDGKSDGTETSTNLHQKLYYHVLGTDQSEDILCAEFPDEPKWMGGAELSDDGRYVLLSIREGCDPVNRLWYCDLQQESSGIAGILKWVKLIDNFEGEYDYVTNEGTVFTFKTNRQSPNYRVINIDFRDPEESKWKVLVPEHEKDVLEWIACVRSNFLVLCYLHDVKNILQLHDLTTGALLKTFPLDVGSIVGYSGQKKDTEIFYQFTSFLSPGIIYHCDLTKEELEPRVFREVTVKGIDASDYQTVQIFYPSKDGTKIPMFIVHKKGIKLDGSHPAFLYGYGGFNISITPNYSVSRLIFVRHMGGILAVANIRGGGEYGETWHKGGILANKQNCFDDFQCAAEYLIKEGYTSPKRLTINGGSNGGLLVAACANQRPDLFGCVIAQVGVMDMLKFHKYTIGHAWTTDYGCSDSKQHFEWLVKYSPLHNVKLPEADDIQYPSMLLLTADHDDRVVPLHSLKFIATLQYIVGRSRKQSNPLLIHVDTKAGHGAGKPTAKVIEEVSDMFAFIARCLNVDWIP
recombinant human dipeptidyl peptidase IV (DPPIV), sequence (P27487 whole entry): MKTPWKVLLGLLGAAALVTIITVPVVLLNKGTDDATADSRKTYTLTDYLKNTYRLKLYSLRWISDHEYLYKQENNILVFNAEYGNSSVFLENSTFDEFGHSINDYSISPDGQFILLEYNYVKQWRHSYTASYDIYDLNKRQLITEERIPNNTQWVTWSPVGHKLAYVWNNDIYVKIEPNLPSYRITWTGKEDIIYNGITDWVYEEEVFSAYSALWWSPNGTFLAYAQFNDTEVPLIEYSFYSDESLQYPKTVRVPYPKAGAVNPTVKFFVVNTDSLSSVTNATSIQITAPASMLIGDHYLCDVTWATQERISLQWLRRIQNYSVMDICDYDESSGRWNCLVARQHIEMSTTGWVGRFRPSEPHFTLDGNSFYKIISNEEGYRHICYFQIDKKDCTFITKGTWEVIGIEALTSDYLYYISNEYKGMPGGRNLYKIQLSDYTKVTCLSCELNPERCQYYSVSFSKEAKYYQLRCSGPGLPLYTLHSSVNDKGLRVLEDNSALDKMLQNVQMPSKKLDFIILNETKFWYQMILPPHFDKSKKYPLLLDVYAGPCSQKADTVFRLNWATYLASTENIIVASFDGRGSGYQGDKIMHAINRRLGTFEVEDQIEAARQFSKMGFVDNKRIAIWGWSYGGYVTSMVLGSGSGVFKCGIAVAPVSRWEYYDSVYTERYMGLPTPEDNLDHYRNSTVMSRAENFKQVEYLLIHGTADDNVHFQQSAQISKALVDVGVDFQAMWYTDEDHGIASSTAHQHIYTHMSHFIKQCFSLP
recombinant human fibroblast activation protein (FAP), sequence (Q12884 whole entry): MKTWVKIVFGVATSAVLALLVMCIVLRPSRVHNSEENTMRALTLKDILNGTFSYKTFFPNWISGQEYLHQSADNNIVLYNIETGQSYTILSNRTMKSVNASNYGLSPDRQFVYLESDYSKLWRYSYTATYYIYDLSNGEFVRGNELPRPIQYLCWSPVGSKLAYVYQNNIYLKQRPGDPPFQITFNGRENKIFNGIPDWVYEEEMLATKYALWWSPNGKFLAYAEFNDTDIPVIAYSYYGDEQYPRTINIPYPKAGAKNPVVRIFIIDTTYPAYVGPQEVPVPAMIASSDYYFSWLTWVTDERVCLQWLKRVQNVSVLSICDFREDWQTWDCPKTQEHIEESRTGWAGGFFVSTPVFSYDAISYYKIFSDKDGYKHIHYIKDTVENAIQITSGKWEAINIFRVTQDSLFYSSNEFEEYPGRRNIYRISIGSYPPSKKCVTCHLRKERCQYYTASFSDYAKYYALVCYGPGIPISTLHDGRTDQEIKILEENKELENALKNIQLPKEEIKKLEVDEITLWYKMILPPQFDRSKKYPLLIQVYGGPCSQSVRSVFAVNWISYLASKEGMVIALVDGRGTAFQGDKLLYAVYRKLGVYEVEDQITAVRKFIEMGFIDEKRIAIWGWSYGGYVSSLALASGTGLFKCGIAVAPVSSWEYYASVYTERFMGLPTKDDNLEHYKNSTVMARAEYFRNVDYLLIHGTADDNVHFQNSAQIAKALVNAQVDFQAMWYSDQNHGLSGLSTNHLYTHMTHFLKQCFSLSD

Row | Structure (SMILES) | IC50 ([1]; Z-Gly-Pro-AMC, 1.2 nM enzyme) [nM] | IC50 ([2]; Z-Gly-Pro-AMC, 0.6 nM enzyme) [nM] | IC50 ([3]; Gly-Pro-AMC, 0.1 nM enzyme) [nM] | IC50 [1] | IC50 [2] [nM] | IC50 [3] [nM]
1 | CC(C)[C@H](NC(=O)CNC(=O)CC[C@H](C(=O)O)N1CCN(CC(=O)O)CCN(CC(=O)O)CCN(CC(=O)O)CC1)C(=O)N[C@H](C)C(=O)N1CCC[C@H]1B(O)O [6795D] | 17 | 7450 | > 100000 | – | – | –
2 | C[C@@H](NC(=O)c1ccc(NNC(=O)CCCCC[N+]2=C(/C=C/C3=C(Oc4ccc(S(=O)(=O)O)cc4)C(=C/C=C4/N(CCCCS(=O)(=O)O)c5ccc(S(=O)(=O)O)cc5C4(C)C)/CCC3)C(C)(C)c3cc(S(=O)(=O)O)ccc32)nc1)C(=O)N1CCC[C@H]1B(O)O [4613 B] | – | – | – | 8.8 nM and 10 nM | 390 | > 100000
3 | C[C@@H](NC(=O)c1ccc(NNC(=O)CN2CCN(CC(=O)O)CCN(CC(=O)O)CCN(CC(=O)O)CC2)nc1)C(=O)N1CCC[C@H]1B(O)O [compound 4536] | – | – | – | 9 nM | 50 | 84000
4 | C[C@@H](NC(=O)c1ccc(NNC(=O)CCCCC[N+]2=C(/C=C/C3=C(Oc4ccc(S(=O)(=O)O)cc4)C(=C/C=C4/N(CCCCS(=O)(=O)O)c5ccc(S(=O)(=O)O)cc5C4(C)C)/CCC3)C(C)(C)c3cc(S(=O)(=O)O)ccc32)cc1)C(=O)N1CCC[C@H]1B(O)O [4613 C] | – | – | – | 1.7 nM | 610 | –
5 | C[C@@H](NC(=O)c1ccc(NNC(=O)CCCCCNC(=O)CN2CCN3CCN4CCN(CC2)CC(=O)[O][Lu]([CH2]C(=O)C3)[O]C(=O)C4)nc1)C(=O)N1CCC[C@H]1B(O)O [6958LU] | – | – | – | 1.1 nM | 155 | –
6 | CC(C)[C@H](NC(=O)CNC(=O)CNC(=O)CN1CCN(CC(=O)O)CCN(CC(=O)O)CCN(CC(=O)O)CC1)C(=O)N[C@H](C)C(=O)N1CC(F)(F)C[C@H]1C#N [compound 6790] ({DOTA}-GGV[dA]-{Pyrrolidine(2S-CN,4,4-F2)}) | 107 | 157000 | – | – | – | –
7 | CC(C)[C@H](NC(=O)CNC(=O)CNC(=O)CN1CCN2CC(=O)O[C]3(CN4CCN5CC(=O)O[C](C1)(C5)[Lu]3[O]C(=O)C4)C2)C(=O)N[C@H](C)C(=O)N1CCC[C@H]1B(O)O (stereo partly drawn) [6522LU] (X3-GGV[dA]-boroPro) | 26 | 19000 | > 100000 | – | – | –
8 | C[C@@H](NC(=O)c1ccc(NC(=O)CN2CCN3CCN4CCN(CC2)CC(=O)[O][Ga]([O]C(=O)C3)[O]C(=O)C4)cc1)C(=O)N1CCC[C@H]1B(O)O [6572GA] | – | – | – | 25 nM | 234 | –
9 | CC(C)[C@H](NC(=O)CNC(=O)CNC(=O)CCC(C(=O)O)N1CCN(CC(=O)O)CCN(CC(=O)O)CCN(CC(=O)O)CC1)C(=O)N[C@H](C)C(=O)N1CCC[C@H]1B(O)O (stereo partly drawn) [compound 6794] ({DOTAGA}-GGV[dA]-boroPro) | 33 | 17400 | – | – | – | –
10 | CC(C)[C@H](NC(=O)CNC(=O)CNC(=O)CNC(=O)CC[C@H](C(=O)O)N1CCN(CC(=O)O)CCN(CC(=O)O)CCN(CC(=O)O)CC1)C(=O)N[C@H](C)C(=O)N1CCC[C@H]1B(O)O [6808D] (X5-GGGV[dA]-boroPro) | 11.5 | 11000 | – | – | – | –
11 | CC(C)[C@H](NC(=O)CNC(=O)CNC(=O)CN1CCCN(CC(=O)O)CCN(CC(=O)O)CCCN(CC(=O)O)CC1)C(=O)N[C@@H](C)C(=O)N1CCC[C@H]1B(O)O [6522L] (X2-GGVA-boroPro) | > 100000 | 7.6 | 3400 | – | – | –
12 | C[C@@H](NC(=O)CN1CCN2CC(=O)O[C]3(CN4CCN5CC(=O)O[C](C1)(C5)[Gd]3[O]C(=O)C4)C2)C(=O)N1CCC[C@H]1B(O)O (stereo partly drawn) [4535GD] | 760 | > 10000 | – | – | – | –
13 | C[C@@H](NC(=O)c1ccc(CNC(=O)CN2CCN3CCN4CCN(CC2)CC(=O)[O][Lu]([O]C(=O)C3)[O]C(=O)C4)nc1)C(=O)N1CCC[C@H]1B(O)O [6556LU] | – | – | – | 2.9 nM | 895 | –
14 | C[C@@H](NC(=O)c1ccc(NNC(=O)CNC(=O)CN2CCN3CCN4CCN(CC2)CC(=O)[O][Ga]([O]C(=O)C3)[O]C(=O)C4)cc1)C(=O)N1CCC[C@H]1B(O)O [6487GA] | – | – | – | 20.8 nM | 1200 | –
15 | CC(C)[C@H](NC(=O)CNC(=O)CCC(C(=O)O)N1CCN(CC(=O)O)CCN(CC(=O)O)CCN(CC(=O)O)CC1)C(=O)N[C@H](C)C(=O)N1CCC[C@H]1B(O)O (stereo partly drawn) [compound 6795] | 8.9 | 5520 | – | – | – | –
16 | C[C@@H](NC(=O)c1ccc(NNC(=O)CCCCCNC(=O)CN2CCN3CCN4CCN(CC2)CC(=O)[O][Lu]([O]C(=O)C3)[O]C(=O)C4)nc1)C(=O)N1CCC[C@H]1B(O)O [6609LU] | – | – | – | 1 nM | 60 | –
17 | C[C@@H](NC(=O)[C@H]1CC[C@H](CNC(=O)CN2CCN3CCN4CCN(CC2)CC(=O)[O][Lu]([O]C(=O)C3)[O]C(=O)C4)CC1)C(=O)N1CCC[C@H]1B(O)O [6952 LU] | 14 | 21000 | > 100000 | – | – | –
18 | C[C@@H](NC(=O)[C@H]1CC[C@H](CNC(=O)CN2CCN3CCN4CCN(CC2)CC(=O)[O][Ga]([O]C(=O)C3)[O]C(=O)C4)CC1)C(=O)N1CCC[C@H]1B(O)O [6952 GA] | 87 | 50000 | 80000 | – | – | –
19 | CC(C)[C@H](NC(=O)CNC(=O)CC[C@@H]1C(=O)[O][Lu]23[O]C(=O)CN4CCN(CCN1CCN(CC4)CC(=O)[O]2)CC(=O)[O]3)C(=O)N[C@H](C)C(=O)N1CCC[C@H]1B(O)O [6795DLU] | 60 | 10000 | > 100000 | – | – | –
20 | C[C@@H](NC(=O)CN1CCN(CC(=O)O)CCN(CC(=O)O)CCN(CC(=O)O)CC1)C(=O)N1CCC[C@H]1B(O)O [compound 4535] | 290 | > 10000 | – | – | – | –
21 | C[C@@H](NC(=O)c1ccc(NNC(=O)CN2CCN3CCN4CCN(CC2)CC(=O)[O][Gd]([O]C(=O)C3)[O]C(=O)C4)nc1)C(=O)N1CCC[C@H]1B(O)O [4536GD] | – | – | – | 450 nM | > 100000 | > 100000
22 | C[C@@H](NC(=O)c1ccc(NNC(=O)CCCNC(=O)CN2CCN3CCN4CCN(CC2)CC(=O)[O][Ga]([O]C(=O)C3)[O]C(=O)C4)nc1)C(=O)N1CCC[C@H]1B(O)O [6489 GA] | – | – | – | 39 nM | 3400 | > 100000
23 | CC(C)[C@H](NC(=O)CNC(=O)CNC(=O)CN1CCN2CC(=O)O[C]3(CN4CCN5CC(=O)O[C](C1)(C5)[Ga]3[O]C(=O)C4)C2)C(=O)N[C@H](C)C(=O)N1CCC[C@H]1B(O)O (stereo partly drawn) [6522GA-02] (X4-GGV[dA]-boroPro) | 575 | 19000 | > 100000 | – | – | –
24 | C[C@@H](NC(=O)c1ccc(NNC(=O)CCCCCNC(=O)CN2CCN3CCN4CCN(CC2)CC(=O)[O][Ga]([O]OC(=O)C3)[O]C(=O)C4)cc1)C(=O)N1CCC[C@H]1B(O)O [6486 GA] | – | – | – | 81 nM | 4700 | > 100000
25 | C[C@@H](NC(=O)c1ccc(NN)nc1)C(=O)N1CCC[C@H]1B(O)O [compound 3860] | – | – | – | 170 nM | 9800 | > 100000

Source: US20240207292A1, “BORONIC ACID COMPOUNDS, COMPOSITIONS AND METHODS” (Trustees of Tufts College, priority 2021, published 2024)
